Values of other authors as cited in patent publication US9095515B2, “Ezetimibe compositions” (Sanovel Ilac Sanayi Ve Ticaret Anonim Sirketi, priority 2009, dated 2015).

Conditions: reported

solubility in water: practically insoluble
Structure (SMILES): O=C1[C@H](CC[C@H](O)c2ccc(F)cc2)[C@@H](c2ccc(O)cc2)N1c1ccc(F)cc1 [Ezetimibe, (3R,4S)-1-(4-fluorophenyl)-3-[(3S)-3-(4-fluorophenyl)-3-hydroxypropyl]-4-(4-hydroxyphenyl)azetidin-2-one]
